Here are results for one compound from patent US10493087B2, “Sialylation-increasing therapies for diseases associated with oxidative stress” (THE UNITED STATES OF AMERICA, AS REPRESENTED BY THE …, priority 2015, dated 2019).

One data set concerns Gne−/−hGNED176V-Tg mice. The data set can be described thus: Fiber diameter analysis of gastrocnemius muscles. Type of data set: in vivo. The following applies: for Mean fiber diameter: gastrocnemius. The method, then:
N-Acetylcysteine (NAC) Treatment Protocols: […] were randomly divided into high dose NAC (n=13), low dose NAC (n=13), or untreated control (n=17) groups. […] There was no difference in water consumption between mice receiving NAC supplemented water or regular drinking water. […] Three littermates groups (high dose NAC; n=7, low dose NAC; n=7, or untreated control; n=6) were treated in the same way. Fiber diameter analysis: Muscle tissues were processed according to previous protocols (8-10). For the morphometric analysis, we stained frozen transverse sections (6 μm) of gastrocnemius muscles with rabbit polyclonal antibody to caveolin 3 (BD Transduction Laboratories), followed by Alexa fluor-conjugated goat IgG antibody to rabbit (Invitrogen). Five randomly selected images per mouse were used to measure fiber diameters using ImageJ software (NIH). Minimal inner diameters of 1,000 myofibers from each mouse were measured.

In data set [1] the test system is GNE Myopathy myotubes. As to the kind of experiment: ROS generation under pro-oxidants (H2O2 or menadione), ΔDCF fluorescence. Type of data set: cell-based, mice. The method, then:
(§1) Cell cultures and myotubes analysis: Myocytes from Gne^−/−hGNED176V-Tg mice and littermate controls were proliferated in DMEM containing 20% fetal bovine serum and 1% chicken embryo extracts in a 5% CO2 and induced to differentiation in a serum free medium, OPTIPRO™ SFM (Gibco), to make the cells hyposialylated. Where indicated, myotubes were treated with 5 mM NeuAc (Japan Food and Liquor Alliance) or 5 mM NAC (Sigma) for 72 h.
To evaluate the ROS generation under pro-oxidants, myotubes cultured in each condition were loaded with 5 μM DCFH-DA for 1 h and recovered in the different concentrations of H2O2 or menadione-containing medium. After 30 min incubation in dark at 37° C., the microplate containing cells with pro-oxidants were placed in a plate reader and fluorescence was captured at every 5 min until it reached a plateau. Maximum fluorescence of each well was used for analysis.

Data set [2] has as its system GNE Myopathy myotubes. As to the kind of experiment: Cell viability assay under pro-oxidants (propidium iodide/Hoechst co-staining). Type of data set: cell-based, mice. Conditions: treated GNE Myopathy myotubes under menadione exposure. As to the method: as §1
For the cell viability assay, myotubes were exposed to H2O2 for 24 h and to menadione for 6 h before staining. Nuclear staining with Hoechst 33342 (Thermo Scientific) and propidium iodide (PI) (Dojindo) was used for morphological assessment of apoptosis by fluorescence microscopy (Lee and Shacter, Journal of Biological Chemistry. 1999; 274:19792-19798). Minimum 200 nuclei were counted and cell viability was calculated by the exclusion of PI-stained nuclei from Hoechst 33342-stained nuclei.

Another data set has as its system GNE Myopathy muscle. As to the kind of experiment: Gene expression analysis of muscle (quantitative RT-PCR and microarray). Type of data set: in vivo, mice. The method, then:
Quantitative RT-PCR and microarray analysis: […] Microarray experiments were carried out using a […] Mouse Whole Genome Bioarray (Applied Microarrays Inc.) at Filgen Inc. The arrays were scanned using a […] Array Scanner (Molecular Devices Inc.). The data were analyzed by using Microarray Data Analysis Tool version 3.2 (Filgen Inc.). For quantitative PCR, TAQMAN® probes were used in combination with the TAQMAN® Gene Expression Master Mix (Applied Biosystems) in a total reaction of 20 μl. STEPONEPLUSTM Real-Time PCR System (Applied Biosystems) was used to quantify mRNA expression. mRNA relative expression was normalized to internal control (GAPDH) and determined as fold change in the average expression value of littermate muscles. The TAQMAN® probes used were as follows: F-box protein 32 (Fbxo32), Mm00499523_m1; tripartite motif-containing 63 (Trim63), Mm01185221_m1; Sulfiredoxin1 homolog (Srxn1), Mm00769566_m1; metallothionein 1 (Mt1), Mm00496660_g1; metallothionein 2 (Mt2), Mm00809556_s1; metallothionein 3 (Mt3), Mm00496661_g1; LC3b, Mm00782868_sH. N-Acetylcysteine (NAC) Treatment Protocols: […] were randomly divided into high dose NAC (n=13), low dose NAC (n=13), or untreated control (n=17) groups. […] There was no difference in water consumption between mice receiving NAC supplemented water or regular drinking water. […] Three littermates groups (high dose NAC; n=7, low dose NAC; n=7, or untreated control; n=6) were treated in the same way.

Data set [3] has as its system GNE Myopathy myotubes. As to the kind of experiment: Intracellular ROS (DCF fluorescence) in cultured myotubes. Type of data set: cell-based, mice. The following applies: GNE Myopathy myotubes treated with 5 mM for 72 h; mean±SEM; untreated 1113±30, littermate controls 115±15. The method, then:
as §1
For the analysis of intracellular ROS, a popular fluorescence-based probe, 2′,7′-dichlorodihydrofluorescein diacetate (DCFH-DA) (Wang et al., Free Radical Biology and Medicine. 1999; 27:612-616; Halliwell and Whiteman, Br J Pharmacol. 2004; 142:231-255) was used. Cells were loaded with 5 μM DCFH-DA (Invitrogen) in PBS for an hour and recovered with phenol red-free DMEM (Gibco) for 30 min at 37° C. in a 5% CO2 incubator. Then the cells were placed in a CYTOFLUOR® Series 4000 multi-well fluorescence plate reader (PerSeptive Biosystems) with temperature maintained at 37° C. The excitation filter was set at 485 nm and the emission filter was set at 530 nm. The fluorescence from each well was captured and recorded.

Data set [4] can be described thus: Safety of long term NAC treatment (side effects, serum chemistry). Type of data set: in vivo, mice. The source says: N-Acetylcysteine (NAC) Treatment Protocols: Gne^−/−hGNED176V-Tg mice were randomly divided into high dose NAC (n=13), low dose NAC (n=13), or untreated control (n=17) groups. For NAC (Sigma) treatment, mice were provided ad libitum access to drinking water containing high dose NAC (1.0% w/v) or low dose NAC (0.1% w/v), which gives an average dose of 1.5 g/kg for high dose group and of 0.15 g/kg for low dose group per day. There was no difference in water consumption between mice receiving NAC supplemented water or regular drinking water. Treatment was initiated from the average age of 26 weeks until the mice reached at least 55 weeks. Three littermates groups (high dose NAC; n=7, low dose NAC; n=7, or untreated control; n=6) were treated in the same way.

Setting [5] is: HD and LD treated GNE Myopathy muscles.

For `CC(=O)N[C@@H](CS)C(=O)O` [NAC, N-acetylcysteine], the Mean fiber diameter in the data set with Gne−/−hGNED176V-Tg mice (HD group 1.5 g/kg per day, p<0.05 vs untreated 31.7±0.8) was 35.2±1.2 μm. The same compound had a Mean fiber diameter in the data set with Gne−/−hGNED176V-Tg mice (LD group 0.15 g/kg per day, p<0.01 vs untreated 31.7±0.8) of 35.7±0.8 μm. Moreover, in the data set with Gne−/−hGNED176V-Tg mice (some healthy control (littermate) mice with NAC supplement), the “Average fiber diameters in healthy control mice” value was “increased”. The “Protective effect in the high oxidative stress condition” value in the data set on GNE Myopathy myotubes [1] (GNE Myopathy myotubes, H2O2 or menadione, more evident for menadione) is listed as “worked effectively”. Besides, the “ΔDCF fluorescence compared to littermate myotubes” value in the data set on GNE Myopathy myotubes [1] (treated GNE Myopathy myotubes under menadione exposure) is reported as “comparable”. Further, the “Cell viability compared to littermate myotubes” value with GNE Myopathy myotubes [2] is on record as “even better”. Moreover, in the data set on GNE Myopathy muscle (setting [5]), the “Upregulation of atrogenes (atrogin-1 and MuRF1)” value is given as “recovered”; the “Upregulation of oxidative stress responsive genes (MT1 and MT2)” value is listed as “recovered”. Further, in the data set with GNE Myopathy muscle (treated GNE Myopathy muscles, RT-PCR and microarray), the “LC3b expression (marker of autophagy)” value was “recovered as well”. In the data set with GNE Myopathy myotubes [3], the “Mean DCF fluorescence (intracellular ROS generation)” value came out at 191±10 AFU. Besides, in data set [4] (long term treatment of mice), the Adverse side effects entry is given as “No adverse side effects”. Further, in data set [4] (treated vs untreated mice), the Alkaline phosphatase entry is on record as “no difference”, the Blood urea nitrogen entry was “no difference” and the Serum aspartate aminotransferase result is reported as “no difference”.
